Our source for the EC50, IC50 and CC50 values is patent publication US10358453B2, “Antiviral compounds” (priority 2015, dated 2019).

In general, EC50 refers to the concentration at which the effect is half-maximal. A word on the IC50: it is the point on the concentration scale where inhibition reaches its midpoint. As usually defined, the CC50 is the concentration giving 50% cytotoxicity. Read a high CC50 as better tolerance by the cells.

Read-outs that look alike come from different tables or passages of the source. Where only a bound is given, the exact number is not on record here.

Data set [1] has as its system Respiratory Syncytial Virus (RSV) long strain. In words: RSV antiviral assay (CPE reduction, CCK-8 readout). It is filed as cell-based. The note with it: human respiratory syncytial virus. The protocol: CPE reduction assays are performed as described by Sidwell and Huffman et al., Appl. Microbiol. […] Compounds are added into 384-well cell plates by Labcyte POD 810 Plate Assembler system. Each of the test compounds is provided to duplicate wells of a 384-well cell plate at final concentrations starting from 100 μM or 1 μM using 1/3 stepwise dilutions for 9 points. Quick-thaw Respiratory Syncytial Virus (RSV) long strain (ATCC#VR-26) stock in a 37° C. water bath. Place on ice until ready to use. Viruses are diluted to the concentration of 100 TCID50/30 μL with medium and 30 μl diluted RSV are added into related wells of 384-well cell plates. For each plate, sixteen wells are set aside as uninfected, untreated cell controls (CC), and nine wells per test plate receive virus only as a control for virus replication (VC). The final DMSO concentration of all wells is 1%. Place the plates at 37° C., 5% CO2 for 5 days.
After 5 days incubation, observe the CPE of cells in all wells. […] Six μl of cell counting kit-8 reagent (CCK-8, Dojindo Molecular Technologies Inc., CK04-20) are added to each well, which allows colorimetric assays to determine the number of viable cells through the dehydrogenase activity detection. After 3-4 hour incubation, the absorbance of each well is measured with a spectrophotometric plate reader at 450 nm wavelength, using a 630 nm filter as background according to manufacturer's instruction.

In a further data set the target is recombinant RSV complex (Human respiratory syncytial virus A, UniProt P28887). As to the kind of experiment: RSV polymerase inhibition assay. In kind it is biochemical. The note with it: 10 nM recombinant RSV complex, 2 h at 30° C.; Table E = <1 μM, Table F = <50 μM; read-out: IC50. In a few lines:
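10 nM recombinant RSV polymerase complex in Tris-HCl pH7.5, 6 mM MgCl2 with RNA oligonucleotides and radionucleotides, incubated 2 h at 30° C with rising inhibitor concentrations. Stopped with EDTA; radiolabelled RNA product counted by scintillation; IC50 from sigmoidal non-linear regression.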

Data set [2] relates to RSV subgenomic replicon 395 HeLa and APC126. As to the kind of experiment: RSV subgenomic replicon assay (Renilla luciferase). It is filed as cell-based. The note with it: human respiratory syncytial virus; RSV replicon cells (395 HeLa 7 days or APC126 3 days); Table G = less than 1 μM, Table H = equal to or higher than 1 μM and less than 50 μM. In a few lines: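 Replicon cells (RSV with SH, G, F replaced by blasticidin resistance; 395 HeLa or BHK-derived APC126) exposed to 9-point 1:3 compound dilutions in 1% DMSO for 7 days (395 HeLa) or 3 days (APC126) at 37 °C. Renilla luciferase luminescence read; EC50 is concentration cutting signal 50% versus untreated cells.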

Data set [3] in a line: Cytotoxicity determination (CCK-8, without addition of virus). The settings on record: human, HEp-2 cells (uninfected), no virus, Table C = greater than 100 μM, Table D = equal to or less than 100 μM and greater than 10 μM. In kind it is cell-based. The essentials:
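HEp-2 cells, no virus, exposed to compound from 100 μM in ½ serial dilutions (7 points, duplicate, 1% DMSO) for 5 days at 37° C, 5% CO2. Viability by CCK-8 (3-4 h) optical density; CC50 calculated.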

Where [4] appears, read: 120 h, HEp-2 cells, RSV long strain, 5 days, Table A = less than 1 μM, Table B = equal to or higher than 1 μM and less than 50 μM, read-out: EC50.

Chain of recombinant RSV complex (P28887 whole entry): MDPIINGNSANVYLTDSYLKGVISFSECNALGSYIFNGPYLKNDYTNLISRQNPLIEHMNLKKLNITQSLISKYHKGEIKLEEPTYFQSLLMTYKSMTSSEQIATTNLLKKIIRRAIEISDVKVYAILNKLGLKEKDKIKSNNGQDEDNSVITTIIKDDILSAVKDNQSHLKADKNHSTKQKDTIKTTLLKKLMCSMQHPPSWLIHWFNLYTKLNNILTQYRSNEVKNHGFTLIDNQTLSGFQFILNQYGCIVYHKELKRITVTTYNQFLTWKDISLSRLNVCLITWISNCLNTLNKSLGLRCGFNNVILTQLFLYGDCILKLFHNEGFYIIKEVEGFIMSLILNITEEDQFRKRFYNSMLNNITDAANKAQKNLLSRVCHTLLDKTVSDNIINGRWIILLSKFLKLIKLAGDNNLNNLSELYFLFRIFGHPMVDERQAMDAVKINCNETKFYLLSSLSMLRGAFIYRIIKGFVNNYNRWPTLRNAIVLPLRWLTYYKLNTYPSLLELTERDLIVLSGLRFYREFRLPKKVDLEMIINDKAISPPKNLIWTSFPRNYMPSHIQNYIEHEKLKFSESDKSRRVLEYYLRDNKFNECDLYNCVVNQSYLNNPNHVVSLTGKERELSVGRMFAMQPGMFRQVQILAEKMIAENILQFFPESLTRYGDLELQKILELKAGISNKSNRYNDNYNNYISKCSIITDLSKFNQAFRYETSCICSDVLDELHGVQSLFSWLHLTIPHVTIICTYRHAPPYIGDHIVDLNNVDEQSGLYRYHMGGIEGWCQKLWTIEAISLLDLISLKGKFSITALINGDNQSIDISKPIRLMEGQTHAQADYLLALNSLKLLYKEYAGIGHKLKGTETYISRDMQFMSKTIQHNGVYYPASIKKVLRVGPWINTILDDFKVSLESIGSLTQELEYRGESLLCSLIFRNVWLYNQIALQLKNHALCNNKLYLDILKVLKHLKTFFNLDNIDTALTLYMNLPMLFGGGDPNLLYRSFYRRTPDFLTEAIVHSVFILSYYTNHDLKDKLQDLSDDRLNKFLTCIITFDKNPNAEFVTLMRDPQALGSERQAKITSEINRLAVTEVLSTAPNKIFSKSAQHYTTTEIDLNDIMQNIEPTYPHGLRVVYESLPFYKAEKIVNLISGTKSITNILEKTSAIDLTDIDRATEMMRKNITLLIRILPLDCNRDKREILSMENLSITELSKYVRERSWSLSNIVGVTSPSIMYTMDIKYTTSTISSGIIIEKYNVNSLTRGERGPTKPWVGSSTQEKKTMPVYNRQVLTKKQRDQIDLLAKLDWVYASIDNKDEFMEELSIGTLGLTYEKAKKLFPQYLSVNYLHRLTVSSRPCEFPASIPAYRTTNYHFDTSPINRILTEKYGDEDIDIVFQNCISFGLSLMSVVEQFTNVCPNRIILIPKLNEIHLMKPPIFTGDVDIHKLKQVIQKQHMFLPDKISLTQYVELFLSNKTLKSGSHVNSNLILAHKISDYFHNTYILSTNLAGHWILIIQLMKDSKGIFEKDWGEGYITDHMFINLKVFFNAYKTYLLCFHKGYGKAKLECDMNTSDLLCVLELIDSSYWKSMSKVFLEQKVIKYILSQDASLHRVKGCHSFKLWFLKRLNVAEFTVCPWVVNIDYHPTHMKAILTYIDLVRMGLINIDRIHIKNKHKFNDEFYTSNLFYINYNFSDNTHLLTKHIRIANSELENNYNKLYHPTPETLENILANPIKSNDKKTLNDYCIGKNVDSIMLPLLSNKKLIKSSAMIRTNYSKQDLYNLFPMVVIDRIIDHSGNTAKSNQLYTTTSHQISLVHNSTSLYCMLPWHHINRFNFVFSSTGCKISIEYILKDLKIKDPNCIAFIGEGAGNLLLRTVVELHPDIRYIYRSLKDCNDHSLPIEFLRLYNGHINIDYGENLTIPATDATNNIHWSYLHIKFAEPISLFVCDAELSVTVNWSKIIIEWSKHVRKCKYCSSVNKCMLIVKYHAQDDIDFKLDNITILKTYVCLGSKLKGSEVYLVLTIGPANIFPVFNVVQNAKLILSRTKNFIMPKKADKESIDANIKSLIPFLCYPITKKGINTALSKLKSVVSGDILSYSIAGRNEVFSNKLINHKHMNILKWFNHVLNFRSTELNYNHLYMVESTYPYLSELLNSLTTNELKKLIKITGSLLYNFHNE
Chain of recombinant RSV complex (P03421 whole entry, further chain): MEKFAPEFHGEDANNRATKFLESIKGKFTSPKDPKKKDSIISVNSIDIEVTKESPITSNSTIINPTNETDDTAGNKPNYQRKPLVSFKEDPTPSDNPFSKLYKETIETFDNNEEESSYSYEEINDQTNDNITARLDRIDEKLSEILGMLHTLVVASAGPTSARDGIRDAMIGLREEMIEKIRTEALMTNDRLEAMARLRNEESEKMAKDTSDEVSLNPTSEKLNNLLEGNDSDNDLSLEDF

For the molecule `COc1cc(C(=O)NCC(O)(c2cc3c(c(-c4ccc(F)cc4)n2)OCC3(N)CO)C(F)(F)F)cc2cccnc12` (single isomer, unassigned) [Compound 2], the EC50 in data set [1] (setting [4]) and in data set [2] was < 1000 nM each time. Also, the IC50 at recombinant RSV complex is < 1000 nM.
As for `COc1cc(C(=O)NCC(O)(c2cc3c(c(-c4ccc(F)cc4)n2)OCC3(N)CO)C(F)(F)F)cc2cccnc12` (centres unmarked) [Compound 1], the EC50 was < 1000 nM in data set [1] (HEp-2, 120 h) and < 1000 nM in data set [2]. In addition, the CC50 at 5 days in data set [3] lay within 10000 to 100000 nM. The IC50 on recombinant RSV complex is < 1000 nM.
For `COc1cc(C(=O)NCC(O)(c2cc3c(c(-c4ccc(F)cc4)n2)OCC3(C)N)C(F)(F)F)cc2c1NC(=O)C2=O` (centres unmarked) [Compound 10], the EC50 in data set [1] (setting [4]) and in data set [2] was 1000 to 50000 nM throughout. In data set [3], this molecule displayed a CC50 at 5 days of 10000 to 100000 nM. Besides, at recombinant RSV complex, the IC50 was < 50000 nM.
Consider `CC1(N)COc2c1cc(C(O)(CNC(=O)c1ccc(OC3CC3)c(OCCO)c1)C(F)(F)F)nc2-c1ccc(F)cc1` (centres unmarked) [Compound 12], for which the EC50 in data set [1] (setting [4]) and in data set [2] was < 1000 nM throughout. Besides, the IC50 on recombinant RSV complex was < 1000 nM.
Turning to `C[C@@H](O)COc1ccc(C(=O)NC[C@@](O)(c2cc3c(c(-c4ccc(F)cc4)n2)OC[C@@]3(C)N)C(F)(F)F)cc1Cl` [Compound 113], the CC50 at 5 days in data set [3] lay within 10000 to 100000 nM. Moreover, on recombinant RSV complex, the IC50 was < 1000 nM. Besides, in data set [2], the EC50 was < 1000 nM.
Take `Cn1nc(C(F)(F)F)cc1C(=O)NCC(O)(c1cc2c(c(-c3ccc(F)cc3)n1)OCC2(C)N)C(F)(F)F` (centres unmarked) [Compound 114]: the CC50 at 5 days in data set [3] lay within 10000 to 100000 nM. For the same molecule, the half-inhibitory concentration (IC50) on recombinant RSV complex was < 1000 nM. Also, the EC50 in data set [2] is < 1000 nM.
With `COc1cc(C(=O)NCC(O)(c2cc(C3(C)CCNCC3)cc(-c3ccc(F)cc3)n2)C(F)(F)F)ccc1OCCO` (centres unmarked) [Compound 117], the CC50 at 5 days in data set [3] lay in the range of 10000 to 100000 nM. Moreover, the IC50 at recombinant RSV complex is < 50000 nM. Further, the EC50 in data set [2] lay in the range of 1000 to 50000 nM.
For the molecule `COc1cc(C(=O)NCC(O)(c2cc(C3(C)COCCN3)cc(-c3ccc(F)cc3)n2)C(F)(F)F)ccc1OCCO` (centres unmarked) [Compound 119], in data set [3], the CC50 at 5 days is > 100000 nM. Also, the IC50 on recombinant RSV complex is < 1000 nM. Further, in data set [2], the EC50 is < 1000 nM.
In the case of `COc1cc(C(=O)NCC(O)(c2nc(-c3ccc(F)cc3)cc3c2OC(C)(N)C3)C(F)(F)F)ccc1OC[C@@H](C)O` (some centres unmarked) [Compound 120], the CC50 at 5 days in data set [3] fell in the range of 10000 to 100000 nM. In addition, on recombinant RSV complex, the IC50 was < 1000 nM. Besides, in data set [2], the EC50 is < 1000 nM.
For the molecule `COc1cc(C(=O)NC[C@@](O)(c2cc3c(c(-c4ccc(F)cc4)n2)OC[C@@]3(C)N)C(F)(F)F)ccc1OCC(C)=O` [Compound 121], the CC50 at 5 days in data set [3] lay within 10000 to 100000 nM. In addition, the IC50 at recombinant RSV complex was < 1000 nM. Besides, the EC50 in data set [2] was < 1000 nM.
As to `COc1cc(C(=O)NC[C@@](O)(c2cc3c(c(-c4ccc(F)cc4)n2)OC[C@@]3(C)N)C(F)(F)F)cc(F)c1OC[C@@H](C)O` [Compound 122], the CC50 at 5 days in data set [3] lay in the range of 10000 to 100000 nM. Besides, on recombinant RSV complex, the IC50 is < 1000 nM. The EC50 in data set [2] was < 1000 nM.
The molecule `COc1cc(C(=O)NC[C@@](O)(c2cc3c(c(-c4ccc(F)cc4)n2)OC[C@@]3(C)NO)C(F)(F)F)ccc1OC[C@@H](C)O` [Compound 123] displayed a 50% cytotoxic concentration (CC50) at 5 days in data set [3] of 10000 to 100000 nM. Moreover, the IC50 at recombinant RSV complex was < 1000 nM. The EC50 in data set [2] was < 1000 nM.
On to `C[C@@]1(N)COc2c1cc([C@](O)(CNC(=O)c1cc(OCCO)c3[nH]ccc3c1)C(F)(F)F)nc2-c1ccc(F)cc1` [Compound 124], for which the CC50 at 5 days in data set [3] was 10000 to 100000 nM. The IC50 at recombinant RSV complex was < 1000 nM. Further, the EC50 in data set [2] was < 1000 nM.
Molecule `COc1cc(C(=O)NCC(O)(c2cc3c(c(-c4ccc(F)cc4)n2)OCC3(C)N)C(F)(F)F)ccc1OC(C)(C)CO` (centres unmarked) [Compound 125] gave a CC50 at 5 days in data set [3] of 10000 to 100000 nM. Further, the IC50 at recombinant RSV complex is < 1000 nM. The EC50 in data set [2] was < 1000 nM.
In data set [3], `COc1cc(C(=O)NC[C@@](O)(c2cc3c(c(-c4ccc(F)cc4)n2)NC[C@@]3(C)N)C(F)(F)F)ccc1OC1CC1` [Compound 127] came in with a CC50 at 5 days of 10000 to 100000 nM. The IC50 on recombinant RSV complex was < 1000 nM. In addition, the EC50 in data set [2] was < 1000 nM.
Turning to `COc1cc(C(=O)NC[C@@](O)(c2cc3c(c(-c4ccc(F)cc4)n2)OC[C@@]3(C)NC(C)=N)C(F)(F)F)ccc1OC[C@@H](C)O` [Compound 130], the CC50 at 5 days in data set [3] is > 100000 nM. Moreover, the IC50 at recombinant RSV complex was < 1000 nM. Also, in data set [2], the EC50 was < 1000 nM.
Regarding `COc1cc(C(=O)NC[C@@](O)(c2cc3c(c(-c4ccc(F)cc4)n2)OC[C@@]3(C)NC2COC2)C(F)(F)F)ccc1OC[C@@H](C)O` [Compound 131], the CC50 at 5 days in data set [3] is 10000 to 100000 nM. Further, the IC50 on recombinant RSV complex was < 1000 nM. The EC50 in data set [2] is < 1000 nM.
`COc1cc(C(=O)NC[C@@](O)(c2cc3c(c(-c4ccc(F)cc4)n2)OC[C@@]3(C)NC(N)=O)C(F)(F)F)ccc1OC[C@@H](C)O` [Compound 132] displayed a CC50 at 5 days in data set [3] of 10000 to 100000 nM. Further, the half-maximal inhibitory concentration (IC50) at recombinant RSV complex was < 1000 nM. Moreover, the EC50 in data set [2] was < 1000 nM.
Consider `COc1cc(C(=O)NCC(O)(c2cc(N3CCNCC3)cc(-c3ccc(F)cc3)n2)C(F)(F)F)ccc1OCCO` (centres unmarked) [Compound 138], for which the CC50 at 5 days in data set [3] was in the range of 10000 to 100000 nM. At recombinant RSV complex, the IC50 was < 1000 nM. Further, the EC50 in data set [2] was 1000 to 50000 nM.
